Laboratory results taken from ChEMBL document CHEMBL5715956, “Selective Targeting of Bromodomains of the Bromodomain-PHD Fingers Family Impairs Osteoclast Differentiation” (ACS Chem Biol, 2017).

Experiments:
[1] = target: T1, Bromodomain-containing protein 1 (Homo sapiens) (UniProt O95696); assay: Binding affinity to BRPF2 (unknown origin) assessed as change in enthalpy at 12 uM by Isothermal titration calorimetry
T1 sequence (whole entry): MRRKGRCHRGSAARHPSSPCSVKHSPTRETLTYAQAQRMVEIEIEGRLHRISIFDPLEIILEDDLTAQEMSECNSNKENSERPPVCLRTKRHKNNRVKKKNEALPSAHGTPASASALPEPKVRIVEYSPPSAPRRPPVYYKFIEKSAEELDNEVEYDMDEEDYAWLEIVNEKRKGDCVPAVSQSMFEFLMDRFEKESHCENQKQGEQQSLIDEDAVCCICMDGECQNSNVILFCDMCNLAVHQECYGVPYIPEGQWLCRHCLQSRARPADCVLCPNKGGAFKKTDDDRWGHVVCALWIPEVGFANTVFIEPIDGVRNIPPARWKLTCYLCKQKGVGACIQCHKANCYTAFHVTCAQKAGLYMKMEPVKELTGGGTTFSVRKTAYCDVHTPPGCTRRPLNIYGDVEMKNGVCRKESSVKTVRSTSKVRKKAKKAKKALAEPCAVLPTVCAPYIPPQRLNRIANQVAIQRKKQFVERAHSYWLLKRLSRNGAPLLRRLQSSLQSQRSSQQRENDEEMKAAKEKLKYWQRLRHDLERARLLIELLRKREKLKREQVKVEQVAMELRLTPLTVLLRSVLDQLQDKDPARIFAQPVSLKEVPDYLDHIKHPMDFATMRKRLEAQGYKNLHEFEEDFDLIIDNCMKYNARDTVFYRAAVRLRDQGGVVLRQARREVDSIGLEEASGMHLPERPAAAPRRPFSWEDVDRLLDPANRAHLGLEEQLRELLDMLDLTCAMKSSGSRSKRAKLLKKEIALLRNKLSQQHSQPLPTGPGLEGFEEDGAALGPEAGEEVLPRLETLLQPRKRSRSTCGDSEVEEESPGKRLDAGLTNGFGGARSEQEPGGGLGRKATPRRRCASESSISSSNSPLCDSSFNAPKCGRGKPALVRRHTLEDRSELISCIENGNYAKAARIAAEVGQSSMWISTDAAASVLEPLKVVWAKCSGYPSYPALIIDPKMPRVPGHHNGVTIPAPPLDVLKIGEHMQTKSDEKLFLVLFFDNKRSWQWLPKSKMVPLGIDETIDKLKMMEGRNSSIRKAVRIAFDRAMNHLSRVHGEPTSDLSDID

[2] = target: Tyrosine-protein kinase BAZ1B (Homo sapiens) (UniProt Q9UIG0); details: dose 10.0 µM
Chain of Tyrosine-protein kinase BAZ1B (Homo sapiens) (Q9UIG0 whole entry): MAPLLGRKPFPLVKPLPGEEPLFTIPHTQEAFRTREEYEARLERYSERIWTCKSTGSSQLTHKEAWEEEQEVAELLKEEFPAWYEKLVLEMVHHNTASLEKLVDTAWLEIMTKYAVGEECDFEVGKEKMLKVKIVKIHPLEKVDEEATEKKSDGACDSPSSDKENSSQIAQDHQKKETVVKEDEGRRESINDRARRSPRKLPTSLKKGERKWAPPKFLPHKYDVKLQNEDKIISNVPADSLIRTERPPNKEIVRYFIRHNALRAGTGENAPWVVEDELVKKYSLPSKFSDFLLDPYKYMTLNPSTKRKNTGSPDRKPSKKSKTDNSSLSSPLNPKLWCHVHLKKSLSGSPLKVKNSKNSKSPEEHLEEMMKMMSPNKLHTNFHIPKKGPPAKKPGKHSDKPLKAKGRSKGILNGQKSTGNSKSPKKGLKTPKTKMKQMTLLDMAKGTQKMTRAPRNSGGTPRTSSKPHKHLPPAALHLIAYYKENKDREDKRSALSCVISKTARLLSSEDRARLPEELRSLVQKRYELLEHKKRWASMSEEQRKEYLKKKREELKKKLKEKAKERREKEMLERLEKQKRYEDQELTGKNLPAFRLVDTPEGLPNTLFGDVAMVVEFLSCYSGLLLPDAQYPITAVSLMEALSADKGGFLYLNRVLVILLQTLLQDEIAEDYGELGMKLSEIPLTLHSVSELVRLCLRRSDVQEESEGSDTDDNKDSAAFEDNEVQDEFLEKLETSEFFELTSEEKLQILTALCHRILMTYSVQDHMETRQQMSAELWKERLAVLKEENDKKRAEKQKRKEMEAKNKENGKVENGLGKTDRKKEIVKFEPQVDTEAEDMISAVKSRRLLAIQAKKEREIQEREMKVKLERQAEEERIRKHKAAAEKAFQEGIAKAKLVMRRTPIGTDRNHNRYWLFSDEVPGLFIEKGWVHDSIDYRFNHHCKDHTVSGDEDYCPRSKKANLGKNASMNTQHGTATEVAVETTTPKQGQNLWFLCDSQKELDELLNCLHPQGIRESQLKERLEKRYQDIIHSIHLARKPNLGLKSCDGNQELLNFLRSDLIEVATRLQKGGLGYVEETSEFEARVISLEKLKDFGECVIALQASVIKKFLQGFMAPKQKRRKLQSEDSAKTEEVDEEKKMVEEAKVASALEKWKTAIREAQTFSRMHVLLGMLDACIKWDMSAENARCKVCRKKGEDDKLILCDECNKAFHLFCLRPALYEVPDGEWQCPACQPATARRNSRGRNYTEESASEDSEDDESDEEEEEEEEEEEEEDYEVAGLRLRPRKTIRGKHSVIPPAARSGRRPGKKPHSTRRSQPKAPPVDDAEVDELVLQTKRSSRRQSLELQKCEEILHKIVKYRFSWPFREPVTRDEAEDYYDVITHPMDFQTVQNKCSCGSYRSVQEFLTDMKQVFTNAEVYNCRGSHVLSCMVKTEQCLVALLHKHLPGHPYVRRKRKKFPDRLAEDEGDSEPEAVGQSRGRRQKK

[3] = target: T2, Bromodomain and PHD finger-containing protein 3 (Homo sapiens) (UniProt Q9ULD4); assay: Binding affinity to BRPF3 (unknown origin) assessed as change in entropy at 12 uM by Isothermal titration calorimetry
T2 sequence (whole entry): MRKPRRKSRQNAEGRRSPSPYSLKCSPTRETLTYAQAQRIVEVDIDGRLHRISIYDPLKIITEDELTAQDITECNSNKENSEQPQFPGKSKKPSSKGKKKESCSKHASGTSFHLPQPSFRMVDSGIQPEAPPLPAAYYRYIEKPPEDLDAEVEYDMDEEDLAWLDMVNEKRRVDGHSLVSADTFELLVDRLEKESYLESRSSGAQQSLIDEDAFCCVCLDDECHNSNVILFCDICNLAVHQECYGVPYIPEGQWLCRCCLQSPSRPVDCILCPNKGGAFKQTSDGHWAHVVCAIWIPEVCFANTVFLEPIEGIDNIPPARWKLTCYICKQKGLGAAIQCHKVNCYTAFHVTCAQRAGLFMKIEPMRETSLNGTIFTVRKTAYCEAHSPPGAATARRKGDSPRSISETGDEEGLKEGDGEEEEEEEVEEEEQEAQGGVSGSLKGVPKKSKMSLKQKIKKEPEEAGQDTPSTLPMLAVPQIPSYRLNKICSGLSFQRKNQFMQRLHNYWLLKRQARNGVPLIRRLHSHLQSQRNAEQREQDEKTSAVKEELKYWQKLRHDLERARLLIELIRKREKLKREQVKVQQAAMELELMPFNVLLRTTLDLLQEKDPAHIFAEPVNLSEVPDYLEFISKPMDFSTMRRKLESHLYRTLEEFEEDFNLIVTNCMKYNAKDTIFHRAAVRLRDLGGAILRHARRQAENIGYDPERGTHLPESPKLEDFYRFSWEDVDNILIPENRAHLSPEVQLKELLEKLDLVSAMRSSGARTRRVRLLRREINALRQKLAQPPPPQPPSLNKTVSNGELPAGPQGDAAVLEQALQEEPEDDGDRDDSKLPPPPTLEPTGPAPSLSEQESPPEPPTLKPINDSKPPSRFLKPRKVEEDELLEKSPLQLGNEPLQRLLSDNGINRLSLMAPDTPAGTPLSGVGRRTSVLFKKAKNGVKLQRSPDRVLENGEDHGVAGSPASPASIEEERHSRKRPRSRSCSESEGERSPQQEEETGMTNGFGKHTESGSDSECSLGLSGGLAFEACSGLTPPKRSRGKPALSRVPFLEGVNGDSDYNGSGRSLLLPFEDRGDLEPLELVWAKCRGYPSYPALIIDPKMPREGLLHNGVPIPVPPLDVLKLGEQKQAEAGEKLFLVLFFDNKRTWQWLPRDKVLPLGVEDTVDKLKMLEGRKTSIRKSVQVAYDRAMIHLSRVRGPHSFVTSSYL

[4] = target: T2, Bromodomain and PHD finger-containing protein 3 (Homo sapiens); assay: Binding affinity to BRPF3 (unknown origin) assessed as change in enthalpy at 12 uM by Isothermal titration calorimetry
[5] = target: Transcription initiation factor TFIID subunit 1-like (Homo sapiens) (UniProt Q8IZX4); details: dose 10.0 µM
[6] = target: Protein polybromo-1 (Homo sapiens) (UniProt Q86U86); details: dose 10.0 µM
[7] = target: Bromodomain-containing protein 3 (Homo sapiens) (UniProt Q15059); details: dose 10.0 µM
Chain of Bromodomain-containing protein 3 (Homo sapiens) (Q15059 2-726 limits assumed): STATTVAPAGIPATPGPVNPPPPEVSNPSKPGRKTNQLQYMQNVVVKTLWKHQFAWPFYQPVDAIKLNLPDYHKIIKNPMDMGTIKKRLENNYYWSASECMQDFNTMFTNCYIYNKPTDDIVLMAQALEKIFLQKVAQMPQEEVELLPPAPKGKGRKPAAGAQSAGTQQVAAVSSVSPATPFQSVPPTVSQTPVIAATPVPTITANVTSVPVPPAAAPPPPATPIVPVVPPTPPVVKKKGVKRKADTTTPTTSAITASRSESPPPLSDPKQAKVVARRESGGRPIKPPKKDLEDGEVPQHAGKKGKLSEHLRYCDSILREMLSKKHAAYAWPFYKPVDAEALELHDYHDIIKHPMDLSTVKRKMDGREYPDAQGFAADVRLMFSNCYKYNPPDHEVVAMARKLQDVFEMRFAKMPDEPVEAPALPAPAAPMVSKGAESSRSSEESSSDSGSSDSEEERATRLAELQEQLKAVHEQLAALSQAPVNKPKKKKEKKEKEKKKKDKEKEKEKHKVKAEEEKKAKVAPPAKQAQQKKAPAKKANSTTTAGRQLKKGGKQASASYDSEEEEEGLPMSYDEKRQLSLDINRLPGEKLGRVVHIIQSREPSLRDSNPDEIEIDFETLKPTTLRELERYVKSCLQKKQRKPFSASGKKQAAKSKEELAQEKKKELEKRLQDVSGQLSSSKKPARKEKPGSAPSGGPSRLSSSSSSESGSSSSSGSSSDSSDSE

[8] = target: Bromodomain adjacent to zinc finger domain protein 1A (Homo sapiens) (UniProt Q9NRL2); details: dose 10.0 µM
[9] = target: CREB-binding protein (Homo sapiens) (UniProt Q92793); details: dose 10.0 µM
[10] = target: Bromodomain-containing protein 7 (Homo sapiens) (UniProt Q9NPI1); details: dose 10.0 µM
Chain of Bromodomain-containing protein 7 (Homo sapiens) (Q9NPI1 whole entry): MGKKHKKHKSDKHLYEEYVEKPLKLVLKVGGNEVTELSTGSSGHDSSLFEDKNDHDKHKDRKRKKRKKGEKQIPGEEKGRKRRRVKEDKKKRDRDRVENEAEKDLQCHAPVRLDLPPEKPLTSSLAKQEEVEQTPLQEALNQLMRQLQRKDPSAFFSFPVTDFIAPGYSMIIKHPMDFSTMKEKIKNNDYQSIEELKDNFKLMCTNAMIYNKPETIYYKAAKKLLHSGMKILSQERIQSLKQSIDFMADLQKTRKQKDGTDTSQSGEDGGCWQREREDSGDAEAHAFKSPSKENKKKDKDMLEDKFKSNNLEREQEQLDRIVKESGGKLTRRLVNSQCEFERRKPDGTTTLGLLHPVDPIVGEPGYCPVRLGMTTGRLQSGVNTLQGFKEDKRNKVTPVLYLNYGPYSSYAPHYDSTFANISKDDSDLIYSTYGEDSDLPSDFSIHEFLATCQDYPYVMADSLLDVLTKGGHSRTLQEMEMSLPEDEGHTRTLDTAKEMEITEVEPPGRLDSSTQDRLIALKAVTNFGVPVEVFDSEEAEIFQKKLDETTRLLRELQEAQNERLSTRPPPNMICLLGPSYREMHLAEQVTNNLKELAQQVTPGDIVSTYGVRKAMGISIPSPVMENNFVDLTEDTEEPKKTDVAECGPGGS

[11] = target: Bromodomain-containing protein 2 (Homo sapiens) (UniProt P25440); details: dose 10.0 µM
Chain of Bromodomain-containing protein 2 (Homo sapiens) (P25440 whole entry, looked up): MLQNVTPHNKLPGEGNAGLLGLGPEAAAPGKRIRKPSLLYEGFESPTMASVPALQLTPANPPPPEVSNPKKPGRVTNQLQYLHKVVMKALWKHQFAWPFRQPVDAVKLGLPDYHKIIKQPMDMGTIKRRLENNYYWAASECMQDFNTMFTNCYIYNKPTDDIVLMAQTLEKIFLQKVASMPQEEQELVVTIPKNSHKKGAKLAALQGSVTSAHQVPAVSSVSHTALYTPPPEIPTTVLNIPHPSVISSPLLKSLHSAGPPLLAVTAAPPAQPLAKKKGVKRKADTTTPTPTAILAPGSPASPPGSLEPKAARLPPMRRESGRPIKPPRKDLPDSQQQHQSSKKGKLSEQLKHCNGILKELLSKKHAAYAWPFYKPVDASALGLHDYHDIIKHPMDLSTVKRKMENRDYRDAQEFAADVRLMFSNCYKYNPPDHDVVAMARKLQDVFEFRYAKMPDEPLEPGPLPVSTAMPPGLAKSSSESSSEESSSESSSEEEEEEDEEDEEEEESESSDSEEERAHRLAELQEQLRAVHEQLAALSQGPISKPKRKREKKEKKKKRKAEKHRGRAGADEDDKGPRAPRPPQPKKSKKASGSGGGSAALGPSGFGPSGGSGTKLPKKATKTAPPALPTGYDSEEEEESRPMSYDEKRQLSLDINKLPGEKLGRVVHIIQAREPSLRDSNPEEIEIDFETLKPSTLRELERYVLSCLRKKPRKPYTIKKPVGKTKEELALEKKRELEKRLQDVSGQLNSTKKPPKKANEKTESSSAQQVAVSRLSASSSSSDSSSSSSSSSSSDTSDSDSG

[12] = target: T1, Bromodomain-containing protein 1 (Homo sapiens); assay: Binding affinity to BRPF2 (unknown origin) assessed as association constant at 12 uM by Isothermal titration calorimetry
[13] = target: Nuclear body protein SP140 (Homo sapiens) (UniProt Q13342); details: dose 10.0 µM
Chain of Nuclear body protein SP140 (Homo sapiens) (Q13342 whole entry, the tested form may be a part): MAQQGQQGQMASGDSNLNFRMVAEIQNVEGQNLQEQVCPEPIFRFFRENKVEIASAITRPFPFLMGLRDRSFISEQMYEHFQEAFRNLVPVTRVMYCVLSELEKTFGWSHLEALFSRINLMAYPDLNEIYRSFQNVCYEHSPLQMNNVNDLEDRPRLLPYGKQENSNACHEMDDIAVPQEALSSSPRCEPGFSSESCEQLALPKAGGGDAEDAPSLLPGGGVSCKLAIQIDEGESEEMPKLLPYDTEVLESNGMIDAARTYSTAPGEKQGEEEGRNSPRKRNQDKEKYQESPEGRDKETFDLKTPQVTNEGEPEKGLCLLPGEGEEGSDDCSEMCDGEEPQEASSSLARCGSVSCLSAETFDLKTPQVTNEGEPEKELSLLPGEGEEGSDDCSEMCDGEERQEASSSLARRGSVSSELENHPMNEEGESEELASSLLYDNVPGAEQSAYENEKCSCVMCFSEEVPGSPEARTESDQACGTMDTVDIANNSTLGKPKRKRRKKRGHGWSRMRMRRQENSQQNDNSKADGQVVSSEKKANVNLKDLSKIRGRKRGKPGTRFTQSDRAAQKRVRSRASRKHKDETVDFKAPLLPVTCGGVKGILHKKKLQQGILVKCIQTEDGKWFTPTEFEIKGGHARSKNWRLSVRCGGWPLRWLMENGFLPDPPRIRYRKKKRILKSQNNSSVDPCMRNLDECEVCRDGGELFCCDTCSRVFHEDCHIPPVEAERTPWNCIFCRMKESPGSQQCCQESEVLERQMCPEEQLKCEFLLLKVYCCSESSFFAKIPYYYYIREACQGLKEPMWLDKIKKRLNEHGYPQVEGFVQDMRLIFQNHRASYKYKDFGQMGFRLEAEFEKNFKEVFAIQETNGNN

[14] = target: Bromodomain adjacent to zinc finger domain protein 2A (Homo sapiens) (UniProt Q9UIF9); details: dose 10.0 µM

## COc1cc2c(cc1NS(=O)(=O)c1ccc(Br)cc1C)n(C)c(=O)n2C
[1]
  deltaH: -9.5 kcal/mol
[2]
  ΔTm: 0.3 °C
[3]
  deltaS: 0.002 kcal/mol/K
[4]
  deltaH: -7.37 kcal/mol
[5]
  ΔTm: 0.3 °C
[6]
  ΔTm: 0.2 °C
[7]
  ΔTm: 1.6 °C
[8]
  ΔTm: 0.15 °C
[9]
  ΔTm: 0.4 °C
[10]
  ΔTm: 1.2 °C
[11]
  ΔTm: 0.7 °C
[12]
  Ka: 1.98 10^6 M^-1
[13]
  ΔTm: 0.1 °C
[14]
  ΔTm: 0.2 °C
